These results are taken from PMC5097697 (Analytical biochemistry, 2016).

This test concerns Sinapis alba myrosinase. The experiment in a line: HPLC progress curves. The format is biochemical. The note with it: pH 7.4, 37 °C; pooled wavelength data (220, 227, 235, 241 nm); myrosinase 8.83 U/ml.

As for `O=S(=O)(O)O/N=C(/CC(c1ccccc1)c1ccccc1)S[C@@H]1O[C@H](CO)[C@@H](O)[C@H](O)[C@H]1O` [compound 5, 2,2-Diphenylethyl glucosinolate], the Km (commonly the concentration of substrate that gives half-maximal velocity) was determined as 798 ± 71 µM.
